Patent US20230270148A1, “BITTER BLOCKERS AND RELATED METHODS OF USE” (Conagen Inc., priority 2020, published 2023)

Tests used:
Format in all cases: in vivo
Details in all cases: dosage 50 or 100 ppm per sample
[1] = system: THC nanoemulsion; assay: Sensory evaluation: bitterness reduction of THC
Method: The bitterness blocker candidates listed in Table 1 were prepared into a 1% sample solution with propylene glycol and heated to ensure complete solubilization. […] THC was first emulsified into a water-soluble nanoemulsion (10 mg THC per serving), to which was added the respective sample solution. A trained sensory evaluator was asked to estimate the perceived bitterness reduction against the control, as well as to provide comments on how the addition of the individual sample solution modulated the taste and mouth feel profile of the resulting nanoemulsion.

[2] = system: cough syrup ROBITUSSIN DM (dextromethorphan HBr and guaifenesin); assay: Sensory evaluation: bitterness reduction of cough syrup ROBITUSSIN DM
Method: The bitterness blocker candidates listed in Table 1 were prepared into a 1% sample solution with propylene glycol and heated to ensure complete solubilization. […] Individually, the respective sample solution was added to a cough syrup sold under the trade name ROBITUSSIN® DM. The bitter-tasting agents contained in the cough syrup were dextromethorphan HBr USP 20 mg and guaifenesin USP 400 mg (as measured for each 20 ml serving, or 21000 mg/l of bitter tastants in total). A trained sensory evaluator was asked to estimate the perceived bitterness reduction against the control, as well as to provide comments on how the addition of the individual sample solution modulated the taste and mouth feel profile of the resulting cough syrup.

[3] = system: dark roast coffee; assay: Sensory evaluation: bitterness reduction of dark roast coffee
Method: The bitterness blocker candidates listed in Table 1 were prepared into a 1% sample solution with propylene glycol and heated to ensure complete solubilization. […] A trained sensory evaluator was asked to estimate the perceived bitterness reduction against the control, as well as to provide comments on how the addition of the individual sample solution modulated the taste and mouth feel profile of the resulting dark roast coffee.

COc1cc([C@@H]2CC(=O)c3c(O)cc(O)cc3O2)ccc1O[C@@H]1O[C@H](CO)[C@@H](O)[C@H](O)[C@H]1O [BB11, Homoeriodictyol 4′-O-glucoside]
Estimated % bitterness reduction ([1]; THC nanoemulsion (10 mg THC per serving)): 60%
Comments ([1]; THC nanoemulsion): Nice upfront bitterness reduction
Estimated % bitterness reduction ([2]; 21000 mg/l of bitter tastants): 60%
Comments [2]: Less bitter, smoother, more
Estimated % bitterness reduction ([3]; caffeine about 740 mg/l): 80%
Comments [3]: Nice upfront bitterness reduction
